Assay results from ChEMBL document CHEMBL3352748, “Lead optimization of imidazopyrazines: a new class of antimalarial with activity on Plasmodium liver stages” (ACS Med Chem Lett, 2014).
≈ marks a conversion by molar mass, not a printed value.

Assays:
Plasmodium yoelii = test: Antiplasmodial activity against blood stage schizont Plasmodium yoelii; assay type: functional, organism-based
Plasmodium falciparum = test: Antiplasmodial activity against schizont blood stage Plasmodium falciparum; assay type: functional, organism-based
Plasmodium cynomolgi [1] = test: Antiplasmodial activity against hypnozoite liver stage Plasmodium cynomolgi; assay type: functional, organism-based
[2] = Hepatic extraction ratio in mouse liver microsomes by LC/MS analysis; assay type: ADME; conditions: read-out: ERH
[3] = Solubility of the compound at pH 6.8 by HT-equilibrium solubility assay; assay type: physicochemical; conditions: buffer
[4] = Half life in mouse liver microsomes by LC/MS analysis; assay type: ADME
Plasmodium cynomolgi [5] = test: Antiplasmodial activity against schizont liver stage Plasmodium cynomolgi; assay type: functional, organism-based
[6] = AUC in mouse at 20 mg/kg, po; assay type: ADME, organism-based; parameters: dose 20 mg/kg, route oral; conditions: plasma
[7] = Tmax in mouse at 20 mg/kg, po; assay type: ADME, organism-based; parameters: dose 20 mg/kg, route oral; conditions: in vivo
[8] = Half life in mouse at 5 mg/kg, iv; assay type: ADME, organism-based; parameters: dose 5 mg/kg, route intravenous; conditions: in vivo
[9] = Clearance in mouse at 5 mg/kg, iv; assay type: ADME, organism-based; parameters: dose 5 mg/kg, route intravenous; conditions: in vivo
[10] = Half life in mouse at 20 mg/kg, po; assay type: ADME, organism-based; parameters: dose 20 mg/kg, route oral; conditions: in vivo
[11] = Oral bioavailability in mouse at 20 mg/kg; assay type: ADME, organism-based; conditions: in vivo
[12] = Volume of distribution at steady state in mouse at 5 mg/kg, iv; assay type: ADME, organism-based; parameters: dose 5 mg/kg, route intravenous; conditions: in vivo, read-out: Vdss
[13] = Cmax in mouse at 20 mg/kg, po; assay type: ADME, organism-based; parameters: dose 20 mg/kg, route oral; conditions: in vivo
Plasmodium berghei = test: Antimalarial activity against Plasmodium berghei infected in mouse assessed as animal protection at 30 mg/kg, po by causal prophylactic activity assay relative to untreated control; assay type: functional

IC50 (Plasmodium yoelii) | IC50 (Plasmodium falciparum) | IC50 (Plasmodium cynomolgi [1]) | hepatic extraction ratio [2] | solubility thermodynamic [3] | half-life [4] | IC50 (Plasmodium cynomolgi [5]) | AUC [6] | Tmax [7] | half-life [8] | clearance [9] | half-life [10] | bioavailability [11] | Vd [12] | Cmax [13] | SMILES | Activity (Plasmodium berghei)
> 10000 nM | 600 nM | > 10000 nM | – | – | – | – | – | – | – | – | – | – | – | – | CN(C(=O)c1ccc2ncc(-c3ccc(C#N)cc3)n2c1)c1ccccc1 | –
5400 nM | 11 nM | > 10000 nM | – | – | – | – | – | – | – | – | – | – | – | – | CN(C(=O)c1ccc2ncc(-c3ccc(C(F)(F)F)cc3)n2c1)c1ccc(C#N)cc1 | –
160 nM | 63 nM | 810 nM | 0.4 | 9 µM (≈ 3.79 µg/mL) | 82 min | 120 nM | – | – | – | – | – | – | – | – | CN(C(=O)c1cn2c(-c3ccc(C(F)(F)F)cc3)cnc2cn1)c1ccc(C#N)cc1 | –
200 nM | 275 nM | – | – | – | – | – | – | – | – | – | – | – | – | – | CN(C(=O)c1cn2c(-c3ccc(C(F)(F)F)cc3)cnc2cn1)c1ccc(Cl)nc1 | –
3630 nM | 1630 nM | – | – | – | – | – | – | – | – | – | – | – | – | – | CN(C(=O)c1cn2c(-c3ccc(C(F)(F)F)cc3)cnc2cn1)c1ccc(C#N)nc1 | –
> 10000 nM | > 10000 nM | – | – | – | – | – | – | – | – | – | – | – | – | – | Cc1ccc(N(C)C(=O)c2cn3c(-c4ccc(C(F)(F)F)cc4)cnc3cn2)nn1 | –
> 10000 nM | 9580 nM | – | – | – | – | – | – | – | – | – | – | – | – | – | CN(C(=O)c1cn2c(-c3ccc(C(F)(F)F)cc3)cnc2cn1)c1nc2ccccc2s1 | –
> 10000 nM | > 10000 nM | – | – | – | – | – | – | – | – | – | – | – | – | – | CN(Cc1ccc(F)cc1)C(=O)c1cn2c(-c3ccc(C(F)(F)F)cc3)cnc2cn1 | –
> 10000 nM | > 10000 nM | – | – | – | – | – | – | – | – | – | – | – | – | – | CN1CCC(N(C)C(=O)c2cn3c(-c4ccc(C(F)(F)F)cc4)cnc3cn2)CC1 | –
46 nM | 32 nM | 300 nM | – | – | – | 300 nM | – | – | – | – | – | – | – | – | CN(C(=O)c1cn2c(-c3ccc(-c4ccn[nH]4)cc3)cnc2cn1)c1ccc(C#N)cc1 | –
19 nM | 22 nM | 60 nM | – | < 5 µM | – | 40 nM | 0.12 µM·h | 102 min | 127 min | 16.2 mL/min/kg | 203 min | 0.24% | 0.99 L/kg | 0.02 µM | CN(C(=O)c1cn2c(-c3ccc(-c4nnc(N)s4)cc3)cnc2cn1)c1ccc(C#N)cc1 | –
62 nM | 56 nM | 260 nM | 0.52 | 170 µM (≈ 66.2 µg/mL) | 57 min | 190 nM | 11.1 µM·h | 30 min | 37.2 min | 39.7 mL/min/kg | 81 min | 51.6% | 0.9 L/kg | 8.3 µM | CN(C(=O)c1cn2c(-c3ccc(C(N)=O)cc3)cnc2cn1)c1ccc(F)cc1 | 80%
290 nM | 131 nM | 94 nM | 0.33 | 430 µM (≈ 176 µg/mL) | 125 min | 81 nM | 12.4 µM·h | 30 min | 25.2 min | 34 mL/min/kg | 97.8 min | 51.9% | 1.02 L/kg | 5.2 µM | CNC(=O)c1ccc(-c2cnc3cnc(C(=O)N(C)c4ccc(C#N)cc4)cn23)cc1 | 80%
36 nM | 58 nM | 196 nM | 0.49 | 820 µM (≈ 344 µg/mL) | 63 min | 105 nM | 31.2 µM·h | 30 min | 49.8 min | 19.3 mL/min/kg | 218 min | 60% | 0.96 L/kg | 20.5 µM | CNC(=O)c1ccc(-c2cnc3cnc(C(=O)N(C)c4ccc(Cl)cc4)cn23)cc1 | –
